Where two headings read alike, the source gives them in different places. Starred links: 1 amine or outer side, 2 acyl side, 3 side chain; linkers in the order of their positions; H or OH if unused. Non-standard residues stand in square brackets, D forms with d. Residues, ends and D or L forms follow the SMILES beside them. *: point of attachment. Dolaproine = CO[C@@H]([C@@H]1CCCN1)[C@@H](C)C(=O)O; X1 = O=C([C@@H]1[C@H]2CC[C@H](C2)N1[*:1])[*:2]; X3 = NC(=O)CN1[C@@H]2CC[C@@H](C2)[C@H]1C(=O)*; Dil = CC[C@H](C)[C@H](NC)[C@@H](CC(=O)O)OC; X4 = N#CCN1[C@@H]2CC[C@@H](C2)[C@H]1C(=O)*; X2 = CN1[C@@H]2CC[C@@H](C2)[C@H]1C(=O)*; Phe(ol) = N[C@H](CO)Cc1ccccc1
Experiments:
Experiment in all cases: In vitro cell killing assay of payloads (cell proliferation, Cell-Titer-Glo)
Format in all cases: cell-based
JimT1 cells = conditions: Homo sapiens, JIMT-1, 120 h, read-out: In vitro cell killing (IC50 (nM)) JimT1
SKBR3 cells = conditions: Homo sapiens, SK-BR-3, 120 h, Cell-Titer-Glo after five days
Description: (§1) For evaluation of the cell killing potency of the cytotoxic peptides of Formula (I) in vitro, cell proliferation assays were performed in parallel with 8 cell lines: MDA-MB231 clone 16, clone 40, JimT1, HCC1954, H526, KU812, CMK11-5 cells and Jurkat cells. In addition, in vitro, cell proliferation assays were performed using 3 other cell lines: A375, SKBR3 and NCI-N87. All the cell lines are described in more detail in Example 106 and were also used to assess the in vitro potency of immunoconjugates of the invention. The cell proliferation assays were conducted with Cell-Titer-Glo™ (Promega) five days after cells were incubated with various concentrations of ADCs (Riss et al., (2004) Assay Drug Dev Technol. 2:51-62).

A375 cells = conditions: Homo sapiens, A-375, 120 h, Cell-Titer-Glo after five days
Description: as §1

HCC1954 cells = conditions: Homo sapiens, read-out: In vitro cell killing (IC50 (nM)) HCC1954
H526 cells = conditions: Homo sapiens, read-out: In vitro cell killing (IC50 (nM)) NCI-H526
NCI-N87 cells = conditions: Homo sapiens, 120 h, Cell-Titer-Glo after five days
Description: as §1

[1] = JimT1 cells, Cell-Titer-Glo after five days, Table 2b
[2] = 120 h, HCC1954 cells, Cell-Titer-Glo after five days, Table 2b
[3] = 120 h, NCI-H526 cells, Cell-Titer-Glo after five days, Table 2b

| SMILES | IC50 (JimT1 cells; [1]) [nM] | IC50 (SKBR3 cells) [nM] | IC50 (A375 cells) [nM] | IC50 (HCC1954 cells; [2]) [nM] | IC50 (H526 cells; [3]) [nM] | IC50 (NCI-N87 cells) [nM] | IC50 (JimT1 cells) [nM] | IC50 (HCC1954 cells; HCC1954, 120 h) [nM] | IC50 (H526 cells; NCI-H526, 120 h) [nM] |
| --- | --- | --- | --- | --- | --- | --- | --- | --- | --- |
| CC[C@H](C)[C@@H]([C@@H](CC(=O)N1CCC[C@H]1[C@H](OC)[C@@H](C)C(=O)N[C@@H](Cc1ccccc1)C(=O)OC)OC)N(C)C(=O)[C@@H](NC(=O)[C@@H]1[C@H]2CC[C@H](C2)N1C)C(C)C [Compound 53, (S)-Methyl 2-((2R,3R)-3-((S)-1-((3R,4S,5S)-4-((S)-N,3-dimethyl-2-((1R,3S,4S)-2-methyl-2-azabicyclo[2.2.1]heptane-3-carboxamido)butanamido)-3-methoxy-5-methylheptanoyl)pyrrolidin-2-yl)-3-methoxy-2-methylpropanamido)-3-phenylpropanoate] (X2-V[Dil][Dolaproine]F-OMe) | 0.011 | 0.008 | 0.0121 | 0.009 | 0.121 | – | – | – | – |
| CC[C@H](C)[C@@H]([C@@H](CC(=O)N1CCC[C@H]1[C@H](OC)[C@@H](C)C(=O)N[C@@H](Cc1ccccc1)C(=O)O)OC)N(C)C(=O)[C@@H](NC(=O)[C@@H]1[C@H]2CC[C@H](C2)N1C)C(C)C [Compound 54, (S)-2-((2R,3R)-3-((S)-1-((3R,4S,5S)-4-((S)-N,3-Dimethyl-2-((1R,3S,4S)-2-methyl-2-azabicyclo[2.2.1]heptane-3-carboxamido)butanamido)-3-methoxy-5-methylheptanoyl)pyrrolidin-2-yl)-3-methoxy-2-methylpropanamido)-3-phenylpropanoic acid] (X2-V[Dil][Dolaproine]F-OH) | 17.1 | – | 27.4 | 7.18 | 54.8 | 7.59 | – | – | – |
| CC[C@H](C)[C@@H]([C@@H](CC(=O)N1CCC[C@H]1[C@H](OC)[C@@H](C)C(=O)N[C@H](CO)Cc1ccccc1)OC)N(C)C(=O)[C@@H](NC(=O)[C@@H]1[C@H]2CC[C@H](C2)N1CC#N)C(C)C [Compound 63, (1R,3S,4S)-2-(Cyanomethyl)-N-((S)-1-(((3R,4S,5S)-1-((S)-2-((1R,2R)-3-(((S)-1-hydroxy-3-phenylpropan-2-yl)amino)-1-methoxy-2-methyl-3-oxopropyl)pyrrolidin-1-yl)-3-methoxy-5-methyl-1-oxoheptan-4-yl)(methyl)amino)-3-methyl-1-oxobutan-2-yl)-2-azabicyclo[2.2.1]heptane-3-carboxamide] (X4-V[Dil][Dolaproine][Phe(ol)]) | 5.08 | – | 14.3 | 1.64 | 6.49 | 2.09 | – | – | – |
| CC[C@H](C)[C@@H]([C@@H](CC(=O)N1CCC[C@H]1[C@H](OC)[C@@H](C)C(=O)N[C@H](CO)Cc1ccccc1)OC)N(C)C(=O)[C@@H](NC(=O)[C@@H]1[C@H]2CC[C@H](C2)N1CC(N)=O)C(C)C [Compound 64, (1R,3S,4S)-2-(2-Amino-2-oxoethyl)-N-((S)-1-(((3R,4S,5S)-1-((S)-2-((1R,2R)-3-(((S)-1-hydroxy-3-phenylpropan-2-yl)amino)-1-methoxy-2-methyl-3-oxopropyl)pyrrolidin-1-yl)-3-methoxy-5-methyl-1-oxoheptan-4-yl)(methyl)amino)-3-methyl-1-oxobutan-2-yl)-2-azabicyclo[2.2.1]heptane-3-carboxamide] (X3-V[Dil][Dolaproine][Phe(ol)]) | 4.15 | – | 25.6 | 1.09 | 5.74 | 1.21 | – | – | – |
| CC[C@H](C)[C@@H]([C@@H](CC(=O)N1CCC[C@H]1[C@H](OC)[C@@H](C)C(=O)N[C@H](CO)Cc1ccccc1)OC)N(C)C(=O)[C@@H](NC(=O)[C@@H]1[C@H]2CC[C@H](C2)N1C(C)=O)C(C)C [Compound 65, (1R,3S,4S)-2-Acetyl-N-((S)-1-(((3R,4S,5S)-1-((S)-2-((1R,2R)-3-(((S)-1-hydroxy-3-phenylpropan-2-yl)amino)-1-methoxy-2-methyl-3-oxopropyl)pyrrolidin-1-yl)-3-methoxy-5-methyl-1-oxoheptan-4-yl)(methyl)amino)-3-methyl-1-oxobutan-2-yl)-2-azabicyclo[2.2.1]heptane-3-carboxamide] (Ac-[X1]V[Dil][Dolaproine][Phe(ol)]) | 6.88 | – | 31.3 | 0.93 | 3.82 | 3.67 | – | – | – |
| CC[C@H](C)[C@@H]([C@@H](CC(=O)N1CCC[C@H]1[C@H](OC)[C@@H](C)C(=O)N[C@@H](Cc1ccccc1)c1nc(-c2ccccc2)c[nH]1)OC)N(C)C(=O)[C@@H](NC(=O)[C@@H]1[C@H]2CC[C@H](C2)N1C)C(C)C [Compound 66, (1R,3S,4S)-N-((S)-1-(((3R,4S,5S)-3-Methoxy-1-((S)-2-((1R,2R)-1-methoxy-2-methyl-3-oxo-3-(((S)-2-phenyl-1-(4-phenyl-1H-imidazol-2-yl)ethyl)amino)propyl)pyrrolidin-1-yl)-5-methyl-1-oxoheptan-4-yl)(methyl)amino)-3-methyl-1-oxobutan-2-yl)-2-methyl-2-azabicyclo[2.2.1]heptane-3-carboxamide] | 0.052 | 0.031 | 0.05 | 0.023 | 0.126 | – | – | – | – |
| CC[C@H](C)[C@@H]([C@@H](CC(=O)N1CCC[C@H]1[C@H](OC)[C@@H](C)C(=O)N[C@H](COC)Cc1ccccc1)OC)N(C)C(=O)[C@@H](NC(=O)[C@@H]1[C@H]2CC[C@H](C2)N1C)C(C)C [Compound 67, (1R,3S,4S)-N-((S)-1-(((3R,4S,5S)-3-Methoxy-1-((S)-2-((1R,2R)-1-methoxy-3-(((S)-1-methoxy-3-phenylpropan-2-yl)amino)-2-methyl-3-oxopropyl)pyrrolidin-1-yl)-5-methyl-1-oxoheptan-4-yl)(methyl)amino)-3-methyl-1-oxobutan-2-yl)-2-methyl-2-azabicyclo[2.2.1]heptane-3-carboxamide] | – | – | 0.244 | – | – | – | 0.369 | 0.239 | 0.614 |
| CC[C@H](C)[C@@H]([C@@H](CC(=O)N1CCC[C@H]1[C@H](OC)[C@@H](C)C(=O)N[C@@H](Cc1ccccc1)c1cc[nH]n1)OC)N(C)C(=O)[C@@H](NC(=O)[C@@H]1[C@H]2CC[C@H](C2)N1C)C(C)C [Compound 68, (1R,3S,4S)-N-((S)-1-(((3R,4S,5S)-3-Methoxy-1-((S)-2-((1R,2R)-1-methoxy-2-methyl-3-oxo-3-(((S)-2-phenyl-1-(1H-pyrazol-3-yl)ethyl)amino)propyl)pyrrolidin-1-yl)-5-methyl-1-oxoheptan-4-yl)(methyl)amino)-3-methyl-1-oxobutan-2-yl)-2-methyl-2-azabicyclo[2.2.1]heptane-3-carboxamide] | 0.251 | – | 0.596 | 0.127 | 0.428 | 0.2 | – | – | – |
| CC[C@H](C)[C@@H]([C@@H](CC(=O)N1CCC[C@H]1[C@H](OC)[C@@H](C)C(=O)N[C@@H](Cc1ccccc1)c1ncccn1)OC)N(C)C(=O)[C@@H](NC(=O)[C@@H]1[C@H]2CC[C@H](C2)N1C)C(C)C [Compound 69, (1R,3S,4S)-N-((S)-1-(((3R,4S,5S)-3-Methoxy-1-((S)-2-((1R,2R)-1-methoxy-2-methyl-3-oxo-3-(((S)-2-phenyl-1-(pyrimidin-2-yl)ethyl)amino)propyl)pyrrolidin-1-yl)-5-methyl-1-oxoheptan-4-yl)(methyl)amino)-3-methyl-1-oxobutan-2-yl)-2-methyl-2-azabicyclo[2.2.1]heptane-3-carboxamide] | 0.091 | – | 0.092 | 0.065 | 0.189 | 0.142 | – | – | – |
| CC[C@H](C)[C@@H]([C@@H](CC(=O)N1CCC[C@H]1[C@H](OC)[C@@H](C)C(=O)N[C@H](Cc1ccccc1)c1ncccn1)OC)N(C)C(=O)[C@@H](NC(=O)[C@@H]1[C@H]2CC[C@H](C2)N1C)C(C)C [Compound 70, (1R,3S,4S)-N-((S)-1-(((3R,4S,5S)-3-methoxy-1-((S)-2-((1R,2R)-1-methoxy-2-methyl-3-oxo-3-(((R)-2-phenyl-1-(pyrimidin-2-yl)ethyl)amino)propyl)pyrrolidin-1-yl)-5-methyl-1-oxoheptan-4-yl)(methyl)amino)-3-methyl-1-oxobutan-2-yl)-2-methyl-2-azabicyclo[2.2.1]heptane-3-carboxamide] | 2.36 | – | 2.16 | 1.38 | 4.73 | 3.81 | – | – | – |
| CC[C@H](C)[C@@H]([C@@H](CC(=O)N1CCC[C@H]1[C@H](OC)[C@@H](C)C(=O)N[C@@H](Cc1ccccc1)c1nnc(-c2ccccc2)o1)OC)N(C)C(=O)[C@@H](NC(=O)[C@@H]1[C@H]2CC[C@H](C2)N1C)C(C)C [Compound 71, (1R,3S,4S)-N-((S)-1-(((3R,4S,5S)-3-methoxy-1-((S)-2-((1R,2R)-1-Methoxy-2-methyl-3-oxo-3-(((S)-2-phenyl-1-(5-phenyl-1,3,4-oxadiazol-2-yl)ethyl)amino)propyl)pyrrolidin-1-yl)-5-methyl-1-oxoheptan-4-yl)(methyl)amino)-3-methyl-1-oxobutan-2-yl)-2-methyl-2-azabicyclo[2.2.1]heptane-3-carboxamide] | 0.124 | – | 0.119 | 0.075 | 0.352 | 0.091 | – | – | – |

Reference: patent US9988420B2, “Cytotoxic peptides and conjugates thereof” (priority 2013, dated 2018)
